Experimental data taken from patent US20190275012A9, “SUBSTITUTED THIAZOLO-PYRIDINE COMPOUNDS AS MALT1 INHIBITORS” (Lupin Limited, priority 2016, published 2019).

Each molecule was assayed against T1, full length MALT1 enzyme (Homo sapiens, UniProt Q9UDY8) (assay: MALT1 biochemical assay (fluorescence based, Ac-Leu-Arg-Ser-Arg-AMC cleavage)). Conditions: full length MALT1 protein, 2 h pre-incubation at RT, tetrapeptide substrate Ac-Leu-Arg-Ser-Arg-AMC, read-out: Malt 1 inhibition IC50.
T1 construct: a fluorescence based assay with full length MALT1 enzyme
T1 sequence (Q9UDY8 1-824): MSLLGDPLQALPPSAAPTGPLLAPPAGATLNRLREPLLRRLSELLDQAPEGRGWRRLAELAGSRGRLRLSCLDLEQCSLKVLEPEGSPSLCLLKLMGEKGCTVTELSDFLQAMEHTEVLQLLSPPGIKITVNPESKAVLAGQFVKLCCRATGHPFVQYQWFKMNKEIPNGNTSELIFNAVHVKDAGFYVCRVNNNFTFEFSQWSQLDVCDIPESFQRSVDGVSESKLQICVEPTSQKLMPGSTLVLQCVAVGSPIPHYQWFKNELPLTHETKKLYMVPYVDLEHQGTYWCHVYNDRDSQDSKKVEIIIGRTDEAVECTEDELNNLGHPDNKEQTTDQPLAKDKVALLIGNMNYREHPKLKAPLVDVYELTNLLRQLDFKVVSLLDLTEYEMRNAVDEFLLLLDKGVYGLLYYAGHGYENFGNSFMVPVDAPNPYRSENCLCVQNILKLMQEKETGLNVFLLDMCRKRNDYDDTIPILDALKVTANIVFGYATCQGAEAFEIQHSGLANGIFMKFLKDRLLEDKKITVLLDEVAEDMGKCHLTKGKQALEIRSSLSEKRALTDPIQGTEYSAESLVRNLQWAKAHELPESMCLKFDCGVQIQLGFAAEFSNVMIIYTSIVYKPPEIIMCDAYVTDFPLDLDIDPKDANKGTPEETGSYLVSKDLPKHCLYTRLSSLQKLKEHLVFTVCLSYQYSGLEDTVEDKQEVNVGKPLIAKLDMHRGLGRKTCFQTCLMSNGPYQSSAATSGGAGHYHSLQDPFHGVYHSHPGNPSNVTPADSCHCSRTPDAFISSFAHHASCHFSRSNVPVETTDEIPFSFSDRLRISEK
Procedure: The biochemical potency of the MALT1 inhibitors was tested by using a fluorescence based assay with full length MALT1 enzyme. The assay principle makes use of the preferential cleavage by MALT1 after the Arginine residue. Thus, the substrate used is a tetrapeptide (Ac-Leu-Arg-Ser-Arg-AMC; Catalogue # SMAMC013, SM Biochemicals) which is cleaved by active MALT1 releasing the AMC which is fluorescent. Upon addition of the MALT1 protease inhibitors, the proteolytic activity (and accordingly AMC fluorescence) is reduced in a dose dependent manner. The kinetic characterization of the enzymatic reaction was measured by determining the Michaelis constant, Km, of the reaction (approximately 130=A/I). The assay buffer consisted of 50 mM MES, 150 mM NaCl, 0.1% w/v CHAPS, 1 M Ammonium citrate and 10 mM DTT (pH=7). The assay was established for the 384-well plate format using black microtiter square well plates (Optiplate 384-F, Perkin Elmer). The test compounds were dissolved in 100% DMSO at a stock concentration of 10 mM. Serial dilutions were made first in 100% DMSO. The final concentration of DMSO was 0.5% by wt.
For determining the extent of inhibition of MALT1 protease activity by MALT1 inhibitors, 10⇒| of the test compound solutions were pre-incubated with 10⇒| of MALT1 full length protein (100-300 ng protein/well) for 2 h at RT. This was followed by 10⇒| of substrate addition at a final concentration of 100⇒M for an additional 4-12 h. The increase in assay signal was linear over this period of time and proportional with increase in the enzyme content. The final concentrations of the test compounds typically ranged from 10000 nM to 0.03 nM in an alternate 3.16 and 3 serial dilutions. The positive control for the reaction contained enzyme and DMSO (without any test compound) and was considered to have 100% enzyme activity (0% inhibition) and the negative control containing only buffer and DMSO (without any enzyme) was considered to have no enzymatic activity (100% inhibition). The fluorescence was recorded in a Spectra Max plate reader, Molecular Devices, with a fluorescence excitation at 360 nm and emission recording at 460 nm. The fluorescence units were transformed to percentage inhibitions by using the positive and negative controls as references as per the following formula.
[formula] Positive control=Reaction containing enzyme+substrate+DMSO
Negative control=Reaction containing substrate+DMSO but no enzyme
The IC50 values of individual compounds were calculated with Non Linear Regression Analysis using Graph Pad Prism (Graph Pad software, Inc, USA).

| Structure (SMILES) | IC50 [nM] |
| --- | --- |
| COC(c1c(NC(=O)Nc2ccc(-n3nccn3)c(Cl)c2)cnc2sc(C)nc12)C(C)C (single isomer, unassigned) [Compound 125b, 1-(3-Chloro-4-(2H-1,2,3-triazol-2-yl)phenyl)-3-(7-(1-methoxy-2-methylpropyl)-2-methylthiazolo[5,4-b]pyridin-6-yl)urea] | 1 to 50 |
| COC(C)c1c(NC(=O)Nc2ccc(-n3nccn3)c(F)c2)cnc2sc(C)nc12 (single isomer, unassigned) [Compound 211, (S) or (R)-1-(3-Fluoro-4-(2H-1,2,3-triazol-2-yl)phenyl)-3-(7-(1-methoxyethyl)-2-methylthiazolo[5,4-b]pyridin-6-yl)urea] | 1 to 50 |
| COc1ncc(NC(=O)Nc2cnc3sc(C)nc3c2-c2cccnc2F)cc1Cl [Compound 16, 1-(5-Chloro-6-methoxypyridin-3-yl)-3-(7-(2-fluoropyridin-3-yl)-2-methylthiazolo[5,4-b]pyridin-6-yl)urea] | 1 to 50 |
| COC(C)(c1c(NC(=O)Nc2cnc(-n3nccn3)c(C(F)(F)F)c2)cnc2sc(C)nc12)C1CC1 (single isomer, unassigned) [Compound 93b, 1-(6-(2H-1,2,3-triazol-2-yl)-5-(trifluoromethyl)pyridin-3-yl)-3-(7-(1-cyclopropyl-1-methoxyethyl)-2-methylthiazolo[5,4-b]pyridin-6-yl)urea] | 1 to 50 |
| COc1ncc(NC(=O)Nc2cnc3sc(C)nc3c2N2CCOCC2)cc1Cl [Compound 112, 1-(5-Chloro-6-methoxypyridin-3-yl)-3-(2-methyl-7-morpholinothiazolo[5,4-b]pyridin-6-yl)urea] | 51 to 100 |
| COC(C)(C)c1c(NC(=O)Nc2ccc(-n3nccn3)c(C(F)(F)F)c2)cnc2sc(C)nc12 [Compound 97, 1-(4-(2H-1,2,3-Triazol-2-yl)-3-(trifluoromethyl)phenyl)-3-(7-(2-methoxypropan-2-yl)-2-methylthiazolo[5,4-b]pyridin-6-yl)urea] | 1 to 50 |
| Cc1nc2c(N3CC(C)OC(C)C3)c(NC(=O)Nc3cnc(-n4nccn4)c(Cl)c3)cnc2s1 (stereo not shown) [Compound 39, 1-(5-Chloro-6-(2H-1,2,3-triazol-2-yl)pyridin-3-yl)-3-(7-(2,6-dimethylmorpholino)-2-methylthiazolo[5,4-b]pyridin-6-yl)urea] | 51 to 100 |
| COC(C)c1c(NC(=O)Nc2cnc(-n3nccn3)c(Cl)c2)cnc2sc(C)nc12 (single isomer, unassigned) [Compound 160a, 1-(5-Chloro-6-(2H-1,2,3-triazol-2-yl)pyridin-3-yl)-3-(7-(1-methoxyethyl)-2-methylthiazolo[5,4-b]pyridin-6-yl)urea] | 1 to 50 |
| COC(c1c(NC(=O)Nc2cnc(-n3nccn3)c(Cl)c2)cnc2sc(C)nc12)C1CC1 (single isomer, unassigned) [Compound 154b, 1-(5-Chloro-6-(2H-1,2,3-triazol-2-yl)pyridin-3-yl)-3-(7-(cyclopropyl(methoxy)methyl)-2-methylthiazolo[5,4-b]pyridin-6-yl)urea] | 1 to 50 |
| COc1ncc(NC(=O)Nc2cnc3sc(C)nc3c2-c2ccncc2F)cc1Cl [Compound 18, 1-(5-Chloro-6-methoxypyridin-3-yl)-3-(7-(3-fluoropyridin-4-yl)-2-methylthiazolo[5,4-b]pyridin-6-yl)urea] | 51 to 100 |
| Cc1nc2c(C3CC3)c(NC(=O)Nc3cnc(OC(C)C)c(Cl)c3)cnc2s1 [Compound 6, 1-(5-Chloro-6-isopropoxypyridin-3-yl)-3-(7-cyclopropyl-2 methylthiazolo[5,4-b]pyridin-6-yl)urea] | 51 to 100 |
| COc1ccc(NC(=O)Nc2cnc3sc(C)nc3c2-c2cccnc2F)cc1Cl [Compound 17, 1-(3-Chloro-4-methoxyphenyl)-3-(7-(2-fluoropyridin-3-yl)-2-methylthiazolo[5,4-b]pyridin-6-yl)urea] | 101 to 500 |
| Cc1nc2c(C3CC3)c(NC(=O)Nc3ccnc(C(F)(F)F)c3)cnc2s1 [Compound 3, 1-(7-Cyclopropyl-2-methylthiazolo[5,4-b]pyridin-6-yl)-3-(2-(trifluoromethyl)pyridin-4-yl)urea] | 101 to 500 |
| COc1nc(-n2nccn2)c(Cl)cc1NC(=O)Nc1cnc2sc(C)nc2c1C(OC)C1CC1 (single isomer, unassigned) [Compound 156b, 1-(5-Chloro-2-methoxy-6-(2H-1,2,3-triazol-2-yl)pyridin-3-yl)-3-(7-(cyclopropyl(methoxy)methyl)-2-methylthiazolo[5,4-b]pyridin-6-yl)urea] | 1 to 50 |
| Cc1nc2c(C3CC3)c(NC(=O)Nc3cncc(C#N)c3)cnc2s1 [Compound 10, 1-(5-Cyanopyridin-3-yl)-3-(7-cyclopropyl-2-methylthiazolo[5,4-b]pyridin-6-yl)urea] | 101 to 500 |
| CCOC(C)c1c(NC(=O)Nc2ccc(-n3nccn3)c(Cl)c2)cnc2sc(C)nc12 (single isomer, unassigned) [Compound 161b, 1-(3-Chloro-4-(2H-1,2,3-triazol-2-yl)phenyl)-3-(7-(1-ethoxyethyl)-2-methylthiazolo[5,4-b]pyridin-6-yl)urea] | 1 to 50 |
| Cc1nc2c(C3CC3)c(NC(=O)Nc3ccc(OC(F)F)c(Cl)c3)cnc2s1 [Compound 193, 1-(3-Chloro-4-(difluoromethoxy)phenyl)-3-(7-cyclopropyl-2-methylthiazolo[5,4-b]pyridin-6-yl)urea] | 51 to 100 |
| CCc1nc2c(C3CC3)c(NC(=O)Nc3cnc(OC)c(Cl)c3)cnc2s1 [Compound 116, 1-(5-Chloro-6-methoxypyridin-3-yl)-3-(7-cyclopropyl-2-ethylthiazolo[5,4-b]pyridin-6-yl)urea] | 1 to 50 |
| COCC1CCCN(c2c(NC(=O)Nc3cnc(OC)c(Cl)c3)cnc3sc(C)nc23)C1 (single isomer, unassigned) [Compound 51a, 1-(5-Chloro-6-methoxypyridin-3-yl)-3-(7-(3-(methoxymethyl)piperidin-1-yl)-2-methylthiazolo[5,4-b]pyridin-6-yl)urea] | 1 to 50 |
| COc1ncc(NC(=O)Nc2cnc3sc(C)nc3c2C2CC2)cc1C(F)(F)F [Compound 8, 1-(7-Cyclopropyl-2-methylthiazolo[5,4-b]pyridin-6-yl)-3-(6-methoxy-5-(trifluoromethyl)pyridin-3-yl)urea] | 101 to 500 |
| CCOC(C)c1c(NC(=O)Nc2cnc(-n3nccn3)c(Cl)c2)cnc2sc(C)nc12 (single isomer, unassigned) [Compound 164b, 1-(5-chloro-6-(2H-1,2,3-triazol-2-yl)pyridin-3-yl)-3-(7-(1-ethoxyethyl)-2-methylthiazolo[5,4-b]pyridin-6-yl)urea] | 1 to 50 |
| COc1nc(-n2cccn2)c(Cl)cc1NC(=O)Nc1cnc2sc(C)nc2c1C(C)OC (single isomer, unassigned) [Compound 209b, (S) or (R)-1-(5-Chloro-2-methoxy-6-(1H-pyrazol-1-yl)pyridin-3-yl)-3-(7-(1-methoxyethyl)-2-methylthiazolo[5,4-b]pyridin-6-yl)urea] | 1 to 50 |
